Test results reported in publication PMC9306949 (Clinical Pharmacology in Drug Development, 2022).
“Also recorded” adds a separate entry of the source. Where two headings read alike, the source gives them in different places. Marks after values point to notes of the source that are not given here.

Legend:
[1] = assay type: in vivo, human; conditions: for M/P (AUC0‐t), metabolite-to-parent ratio / AUC0‐24 / AUC0‐inf / AUC0‐t / C24 / Cmax: mean (%CV); for t1/2 / AUC0‐24 / AUC0‐inf / AUC0‐t / C24 / Cmax / tmax: plasma; for t1/2: arithmetic mean (%CV); for tmax: median (min-max)
[2] = Urine excretion of navtemadlin and M1; assay type: in vivo, human
[3] = cited from earlier work
[4] = cited from earlier work; remark: listed apart in the source
[5] = Treatment A (reference): new tablet fasted, drug-load analysis
[6] = Treatment A (reference): new tablet fasted, food-effect analysis
[7] = Treatment B (test 1): new tablet fed, food-effect analysis
[8] = Treatment B: 60-mg new tablet, fed (high-fat meal)
[9] = Treatment C (test 2): old tablet fasted, drug-load analysis
[10] = Treatment C: 60-mg old tablet, fasted
[11] = Treatment A: 60-mg new tablet, fasted
[12] = test/reference: B (new tablet fed) vs A (new tablet fasted)
[13] = test/reference: C (old tablet fasted) vs A (new tablet fasted)
[14] = period 1 (old tablet fasted), 0-48 h urine
[15] = patients with solid tumors or multiple myeloma

## CC(C)[C@@H](CS(=O)(=O)C(C)C)N1C(=O)[C@@](C)(CC(=O)O[C@@H]2O[C@H](C(=O)O)[C@@H](O)[C@H](O)[C@H]2O)C[C@H](c2cccc(Cl)c2)[C@H]1c1ccc(Cl)cc1 [M1, navtemadlin acyl glucuronide]
[1]; Treatment A (reference): new tablet fasted, average of 2, drug-load analysis
  tmax, median: 2.5 ^d h
[1]; Treatment A (reference): new tablet fasted, average of 2, food-effect analysis
  tmax, median: 2.5 ^d h
[1]; [5]
  AUC0‐24, GLSM: 528, N = 30 ng • h/mL
  AUC0‐inf, GLSM: 701, N = 28 ng • h/mL
  AUC0‐t, GLSM: 646, N = 30 ng • h/mL
  Cmax, GLSM: 98, N = 30 ng/mL
[1]; [6]
  AUC0‐24, GLSM: 528, N = 30 ng • h/mL
  AUC0‐inf, GLSM: 710, N = 28 ng • h/mL
  AUC0‐t, GLSM: 646, N = 30 ng • h/mL
  Cmax, GLSM: 98, N = 30 ng/mL
[1]; Treatment A, n = 16 vs n = 12
  exposure in UGT1A1*28 heterozygous poor metabolizers (6/7 TA repeats) vs WT (6/6 TA repeats): generally comparable
[1]; [7]
  AUC0‐24, GLSM: 465, N = 30 ng • h/mL
  AUC0‐inf, GLSM: 610, N = 22 ng • h/mL
  AUC0‐t, GLSM: 555, N = 30 ng • h/mL
  Cmax, GLSM: 117, N = 30 ng/mL
  tmax, median: 3.0 ^d h
[1]; [8]
  M/P (AUC0‐t), metabolite-to-parent ratio: 0.2 (38.3); 30
  AUC0‐24: 532 (56.0); 30 ng • h/mL
  AUC0‐inf: 824 (61.1); 22 ng • h/mL
  AUC0‐t: 666 (65.8); 30 ng • h/mL
  C24: 5.96 (87.8); 30 ng/mL
  Cmax: 133 (52.6); 30 ng/mL
  tmax: 3.00 (0.99 ‐ 4.02); 30 h
[1]; [9]
  AUC0‐24, GLSM: 506, N = 30 ng • h/mL
  AUC0‐inf, GLSM: 643, N = 26 ng • h/mL
  AUC0‐t, GLSM: 585, N = 30 ng • h/mL
  Cmax, GLSM: 84, N = 30 ng/mL
  tmax, median: 2.0 ^d h
[1]; [10]
  M/P (AUC0‐t), metabolite-to-parent ratio: 0.2 (34.3); 30
  t1/2: 13.7 (68.5); 26 h
  AUC0‐24: 609 (68.6); 30 ng • h/mL
  AUC0‐inf: 794 (71.6); 26 ng • h/mL
  AUC0‐t: 740 (77.5); 30 ng • h/mL
  C24: 7.04 (109.6); 30 ng/mL
  Cmax: 101 (65.3); 30 ng/mL
  tmax: 2.01 (1.00 – 6.00); 30 h
[1]; after correction for molecular weight, across study groups
  acyl glucuronide to parent drug AUC0‐t ratio: ≈ 0.2
[1]; all 3 treatments
  time of second peak after dosing (enterohepatic recirculation): around 10 hours
[1]; n = 12 positive vs n = 18 negative
  PK in H. pylori–positive vs H. pylori–negative subjects: not markedly affected
[1]; new tablet fed vs fasted
  decrease in extent of exposure (AUC0‐24, AUC0‐t, AUC0‐inf) with a high‐fat meal: 12% to 18%
  increase in Cmax with a high‐fat meal: ≈ 18%; also recorded: ≈ 20%
[1]; new tablet, Wilcoxon signed-rank, alpha level of 0.1
  difference in median tmax between fed and fasted conditions, significance: not significant
[1]; [11]
  t1/2: 16.2 (57.8); 46 h
  AUC0‐24: 607 (60.9); 60 ng • h/mL
  AUC0‐inf: 849 (74.1); 46 ng • h/mL
  AUC0‐t: 782 (72.2); 60 ng • h/mL
  C24: 7.82 (97.4); 60 ng/mL
  Cmax: 118 (70.0); 60 ng/mL
  tmax: 2.02 (1.00 – 6.00); 60 h
[1]; test-reference: B (new tablet fed) minus A (new tablet fasted)
  tmax, difference of medians (90%CI): 0.4 (‐0.002‐0.8) ^e , ^g h
[1]; test-reference: C (old tablet fasted) minus A (new tablet fasted)
  tmax, difference of medians (90%CI): 0.1 (–0.3 to 0.6) ^e , ^g h
[1]; [12]
  AUC0‐24, % ratio of least squares means (90%CI): 88.2 (82.2‐94.6) %
  AUC0‐inf, % ratio of least squares means (90%CI): 86.0 (77.5‐95.4) %
  AUC0‐t, % ratio of least squares means (90%CI): 85.9 (79.9‐92.3) %
  Cmax, % ratio of least squares means (90%CI): 118.7%
[1]; [13]
  AUC0‐24, % ratio of least squares means (90%CI): 95.8 (89.4‐102.7) %
  AUC0‐inf, % ratio of least squares means (90%CI): 91.8 (85.3 to 98.6) %
  AUC0‐t, % ratio of least squares means (90%CI): 90.6 (84.2 to 97.6) %
  Cmax, % ratio of least squares means (90%CI): 85.7 (77.9‐94.2) %
[2]; [14]
  mean amount excreted in urine: 17.3 µg
  mean fraction of dose excreted in urine: 0.02%
[2]; single 60-mg dose, healthy subjects
  urine excretion: negligible
[3]; 7‐day once‐daily dosing period, patients
  mean accumulation: < 2 fold
[3]; [15]
  mean (SD) terminal half‐life (t1/2): 14.0 (6.07) hours
  mean metabolite‐to‐parent 24‐hour AUC ratio: 0.461
  mean tmax: 2 to 4 h
[4]; rat bile
  share of excreted biliary radioactivity: accounts for most of the excreted biliary radioactivity
[4]; rat feces, hydrolysis in the intestine
  presence in feces: not present in rat feces
